The source of these data is patent publication US20240336642A1 (The General Hospital Corporation, priority 2021, published 2024).

Each structure is given as a SMILES string. Bounds are passed on as bounds.

In assay [1] the test system is experimental stroke model in mice (MCAO). In words: Long-term outcome after MCAO: Garcia score. The note with it: 40 mg/kg i.v. 2 hours post reperfusion. Format: in vivo, mouse. On the procedure:
(§1) Long-term outcome experiment: 40 mg/kg cmpd. 1 delivered I.V. 2 hours post reperfusion, same as short term, compared to vehicle (10% solutol/90% PEG400). 45 mice operated, and 27 survived, mice were sacrificed on day 30.

The test system is the same in assay [2]. In words: Mouse stroke model, filament middle cerebral artery occlusion (MCAO), infarct size. The assay is classed as in vivo. The procedure:
Studies were carried out in experimental stroke model in mice, using the filament model of middle cerebral artery occlusion (MCAO). For intraperitoneal delivery, compounds were dissolved in DMSO. A number of exemplified compounds were able to reduce infarct size when given at a dosage of 40 mg/kg.
40 mg/kg cmpd. 1 were given i.p. at time of reperfusion. Infarct size was measured at 24 hours after 60 minutes MCAO.
MCAO (Experimental Middle Cerebral Artery Ischemia and Functional Recovery) experiment: 40 mg/kg of compound delivered intraperitoneally 2 h post reperfusion, 60 minutes MCAO, sacrifice at 24 h, infarct size determined by TTC staining.

Assay [3] has the same test system. In words: Long-term outcome after MCAO: adhesive (tape) removal test. The assay is classed as in vivo, mouse. As to conditions: 40 mg/kg i.v. 2 hours post reperfusion. The procedure: as §1
Assay [4] has as its target 12-LOX (Homo sapiens (Human), UniProt P18054). In words: Selectivity versus 12-LOX. Format: biochemical.
The target in assay [5] is Human 12/15-LOX E. coli (Homo sapiens (Human), UniProt P16050). In words: Human 12/15-LOX E. coli IC50. The assay is classed as biochemical.
Assay [6] concerns the target Human 12/15-LOX HEK (Homo sapiens (Human), UniProt P16050). In words: Human 12/15-LOX HEK EC50. The assay is classed as cell-based.

Human 12/15-LOX E. coli, sequence (P16050 whole entry): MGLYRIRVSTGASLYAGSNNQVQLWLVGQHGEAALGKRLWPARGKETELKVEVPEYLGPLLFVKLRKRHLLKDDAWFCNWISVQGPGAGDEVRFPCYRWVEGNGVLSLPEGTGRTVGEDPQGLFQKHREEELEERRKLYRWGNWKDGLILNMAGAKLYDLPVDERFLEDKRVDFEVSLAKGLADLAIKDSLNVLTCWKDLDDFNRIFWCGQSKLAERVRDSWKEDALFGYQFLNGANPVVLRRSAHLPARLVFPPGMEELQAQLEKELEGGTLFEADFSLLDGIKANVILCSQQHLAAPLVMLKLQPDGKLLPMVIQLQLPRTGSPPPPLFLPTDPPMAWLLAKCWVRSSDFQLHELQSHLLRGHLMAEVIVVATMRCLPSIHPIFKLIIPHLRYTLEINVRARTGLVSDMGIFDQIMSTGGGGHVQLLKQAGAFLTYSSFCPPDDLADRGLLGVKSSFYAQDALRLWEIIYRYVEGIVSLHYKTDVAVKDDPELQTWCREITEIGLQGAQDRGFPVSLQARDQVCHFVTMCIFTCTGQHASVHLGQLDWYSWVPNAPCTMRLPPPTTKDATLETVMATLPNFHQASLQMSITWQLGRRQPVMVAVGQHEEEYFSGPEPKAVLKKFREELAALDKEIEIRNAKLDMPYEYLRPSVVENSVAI
Human 12/15-LOX HEK, sequence (P16050 whole entry): as above
12-LOX, sequence (P18054 whole entry): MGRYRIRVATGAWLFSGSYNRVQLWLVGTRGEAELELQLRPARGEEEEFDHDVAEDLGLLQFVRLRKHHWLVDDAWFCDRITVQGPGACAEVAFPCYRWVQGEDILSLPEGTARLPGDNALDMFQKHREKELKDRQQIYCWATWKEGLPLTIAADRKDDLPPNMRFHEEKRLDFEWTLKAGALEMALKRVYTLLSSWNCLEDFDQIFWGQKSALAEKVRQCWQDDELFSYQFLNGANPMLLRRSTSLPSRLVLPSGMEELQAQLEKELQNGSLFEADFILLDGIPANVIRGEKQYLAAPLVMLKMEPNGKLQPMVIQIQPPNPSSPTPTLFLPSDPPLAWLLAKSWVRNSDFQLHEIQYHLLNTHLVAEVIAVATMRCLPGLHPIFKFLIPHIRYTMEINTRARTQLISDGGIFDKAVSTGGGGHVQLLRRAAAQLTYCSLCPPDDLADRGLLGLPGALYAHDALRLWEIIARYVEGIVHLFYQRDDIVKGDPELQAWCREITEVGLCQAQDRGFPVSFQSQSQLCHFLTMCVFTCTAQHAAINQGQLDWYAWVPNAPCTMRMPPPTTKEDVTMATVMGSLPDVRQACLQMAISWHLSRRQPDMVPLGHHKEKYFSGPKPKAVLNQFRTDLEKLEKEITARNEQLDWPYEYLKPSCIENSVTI

Usually IC50 stands for the concentration at which inhibition is half-maximal. Low readings indicate inhibition by little substance, high ones a need for much substance. As usually defined, the EC50 is the concentration giving half of the maximal effect. As for `CNc1oc(-c2cc(Cl)cc(Cl)c2Cl)nc1C#N` [Compound 1, 5-(methylamino)-2-(2,3,5-trichlorophenyl) oxazole-4-carbonitrile], the “Garcia score, improvement compared to vehicle treatment” value in assay [1] (Day 3) was found to be 23.8%; in assay [1] (Week 4) it was 68.5%. For the same molecule, the infarct size reduction amounted to 25.8% in assay [2] (20 mg/kg i.v. 2 hours post reperfusion); 34.1% in assay [2] (40 mg/kg i.v. in 10% Solutol/90% PEG400, 2 h after reperfusion, 24 h); 37.2% in assay [2] (female mice, 40 mg/kg i.p. at time of reperfusion, 24 h after 60 minutes MCAO); 33.4% in assay [2] (male mice, 40 mg/kg i.p. at time of reperfusion, 24 h after 60 minutes MCAO). Besides, the “Adhesive (tape) removal test, improvement compared to vehicle treatment” value in assay [3] (Week 1) was 65.6%; in assay [3] (Week 4), 93.3%. Besides, the “selectivity over 12-LOX” value in assay [4] is listed as above 400 fold. For the same molecule, in assay [5], the “Human 12/15-LOX E. coli % max” value stood at 88%. In addition, inhibition in assay [5] was half-maximal at 110 nM (IC50). The EC50 in assay [6] came to 920 nM.
